The values below are quoted from earlier work in patent US10226403B2, “Composition and method for using medicament for endodontic irrigation, stem cell preparation and tissue regeneration” (priority 2012, dated 2019).

Where two headings read alike, the source gives them in different places.

With `OCl` [Sodium hypochlorite, sodium hypochlorite], the effectiveness entry is on record as “highly effective”. For the same compound, where the note is “at 1.3-2.5%”, the effectiveness entry is given as “ineffective”.
